Tests used:
[1] = biological target: T1, 5-hydroxytryptamine receptor 1A (Homo sapiens) (UniProt P08908); assay: Functional activity in [35S]GTP-gamma-S assay for 5HT1A receptor
T1 sequence (whole entry): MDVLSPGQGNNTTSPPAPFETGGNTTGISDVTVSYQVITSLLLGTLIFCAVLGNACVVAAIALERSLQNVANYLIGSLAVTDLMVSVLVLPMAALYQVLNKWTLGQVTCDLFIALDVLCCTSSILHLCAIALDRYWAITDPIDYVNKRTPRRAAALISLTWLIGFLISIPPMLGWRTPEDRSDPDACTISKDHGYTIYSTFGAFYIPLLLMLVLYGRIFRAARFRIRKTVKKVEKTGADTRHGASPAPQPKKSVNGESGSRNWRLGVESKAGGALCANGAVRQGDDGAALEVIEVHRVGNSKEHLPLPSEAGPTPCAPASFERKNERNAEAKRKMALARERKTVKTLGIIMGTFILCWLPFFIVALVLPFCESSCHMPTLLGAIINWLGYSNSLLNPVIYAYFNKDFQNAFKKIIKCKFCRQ

[2] = biological target: T1, 5-hydroxytryptamine receptor 1A (Homo sapiens); assay: Intrinsic activity for 5HT1A receptor in [35S]GTP-gamma-S assay; format: functional
[3] = biological target: T2, 5-hydroxytryptamine receptor 1B (Homo sapiens, UniProt P28222); assay: Intrinsic activity for 5HT1B receptor in FLIPR assay; format: functional
[4] = biological target: T2, 5-hydroxytryptamine receptor 1B; assay: Inhibitory activity against human recombinant 5HT1B receptor co-expressed with G-protein chimera Gqo5 in HEK293 cells by FLIPR; format: functional, cell-based
[5] = biological target: T2, 5-hydroxytryptamine receptor 1B; assay: Functional activity in FLIPR assay for 5HT1B receptor
[6] = biological target: T3, 5-hydroxytryptamine receptor 1A (Homo sapiens, UniProt P08908); assay: Displacement of [35S]GTP-gamma-S from human recombinant 5HT1A receptor; format: functional
T3 sequence (P08908 whole entry): T1 sequence (whole entry)

[7] = biological target: T4, Adrenergic receptor alpha-1 (Homo sapiens, UniProt P35348+P25100+P35368); assay: Inhibitory activity against Adrenergic alpha-1 receptor; format: protein assay
T4 sequence (P35348 whole entry): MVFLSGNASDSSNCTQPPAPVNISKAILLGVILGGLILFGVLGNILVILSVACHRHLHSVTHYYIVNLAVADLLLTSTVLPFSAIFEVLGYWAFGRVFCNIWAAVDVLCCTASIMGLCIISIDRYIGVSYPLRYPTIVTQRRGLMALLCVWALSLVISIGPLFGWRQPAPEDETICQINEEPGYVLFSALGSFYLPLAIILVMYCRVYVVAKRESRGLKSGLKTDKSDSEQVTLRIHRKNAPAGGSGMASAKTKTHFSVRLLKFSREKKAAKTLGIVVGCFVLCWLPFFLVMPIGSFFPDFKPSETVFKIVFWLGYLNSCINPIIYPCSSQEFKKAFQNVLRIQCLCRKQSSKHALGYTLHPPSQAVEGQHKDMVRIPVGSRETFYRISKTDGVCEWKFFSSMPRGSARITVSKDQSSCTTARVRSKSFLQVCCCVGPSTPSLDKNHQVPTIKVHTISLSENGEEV
T4 sequence (P25100 whole entry): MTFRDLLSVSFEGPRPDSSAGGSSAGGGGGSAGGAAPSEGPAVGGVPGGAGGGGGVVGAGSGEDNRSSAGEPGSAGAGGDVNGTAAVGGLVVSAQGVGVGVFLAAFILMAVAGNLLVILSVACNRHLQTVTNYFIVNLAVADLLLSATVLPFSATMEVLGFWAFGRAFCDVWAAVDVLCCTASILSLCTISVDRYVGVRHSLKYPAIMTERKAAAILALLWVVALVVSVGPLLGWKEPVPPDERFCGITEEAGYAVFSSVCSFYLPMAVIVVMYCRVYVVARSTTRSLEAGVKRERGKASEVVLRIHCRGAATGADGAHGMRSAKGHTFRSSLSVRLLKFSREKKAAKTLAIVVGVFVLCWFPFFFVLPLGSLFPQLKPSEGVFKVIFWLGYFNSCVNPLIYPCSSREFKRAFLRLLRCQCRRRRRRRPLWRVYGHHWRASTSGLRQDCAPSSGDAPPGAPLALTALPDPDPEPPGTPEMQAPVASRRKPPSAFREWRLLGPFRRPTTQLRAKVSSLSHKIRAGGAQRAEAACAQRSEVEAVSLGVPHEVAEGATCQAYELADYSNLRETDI
T4 sequence (P35368 whole entry): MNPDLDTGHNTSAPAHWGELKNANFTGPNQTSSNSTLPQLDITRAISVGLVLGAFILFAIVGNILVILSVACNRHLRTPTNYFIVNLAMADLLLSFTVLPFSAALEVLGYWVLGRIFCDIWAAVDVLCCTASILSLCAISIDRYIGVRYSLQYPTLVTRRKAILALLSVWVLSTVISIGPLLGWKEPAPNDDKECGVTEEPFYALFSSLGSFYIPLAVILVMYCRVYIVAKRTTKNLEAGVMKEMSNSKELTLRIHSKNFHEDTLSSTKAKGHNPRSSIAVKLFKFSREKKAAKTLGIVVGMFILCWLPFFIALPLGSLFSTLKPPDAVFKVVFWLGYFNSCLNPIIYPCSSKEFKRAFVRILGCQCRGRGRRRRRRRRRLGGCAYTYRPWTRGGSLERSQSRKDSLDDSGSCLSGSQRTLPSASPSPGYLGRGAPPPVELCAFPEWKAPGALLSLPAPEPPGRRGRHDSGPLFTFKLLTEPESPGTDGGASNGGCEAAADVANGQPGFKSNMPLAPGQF

T2 sequence (P28222 whole entry): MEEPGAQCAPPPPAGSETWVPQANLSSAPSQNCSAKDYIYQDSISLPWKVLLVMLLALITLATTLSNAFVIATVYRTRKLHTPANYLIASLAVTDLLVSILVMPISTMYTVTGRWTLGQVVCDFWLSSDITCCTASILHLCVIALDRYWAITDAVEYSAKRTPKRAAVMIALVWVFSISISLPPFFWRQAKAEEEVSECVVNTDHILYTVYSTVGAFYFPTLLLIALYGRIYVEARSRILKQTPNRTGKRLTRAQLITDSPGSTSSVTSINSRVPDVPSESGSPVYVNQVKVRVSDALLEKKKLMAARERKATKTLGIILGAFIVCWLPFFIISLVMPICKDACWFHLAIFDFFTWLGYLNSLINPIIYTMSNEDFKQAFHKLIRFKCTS

Compound | Activity ([1]; filed as partial agonist) | Emax [2] [%] | Emax [3] [%] | Ki [4] [nM] | Activity ([5]; filed as partial agonist) | Ki [6] [nM] | Ki [7] [nM] | Activity ([1]; filed as agonist) | Activity ([5]; filed as antagonist) | Activity ([1]; filed as antagonist) | Activity ([5]; filed as agonist)
CN1CCc2c(sc3ncn(CCN4CCN(c5cccc6cccnc56)CC4)c(=O)c23)C1 | Partial agonist | 10 | 20 | 0.3 | Partial agonist | 0.2 | 1.2 | – | – | – | –
CC(C)Oc1ccccc1N1CCN(CCn2cnc3sc4c(c3c2=O)CCN(C)C4)CC1 | Partial agonist | 10 | < 20 | 2.5 | – | 0.7 | 0.1 | – | Antagonist | – | –
COc1cc(Cl)ccc1N1CCN(CCn2cnc3sc4c(c3c2=O)CCN(C)C4)CC1 | Partial agonist | 10 | < 20 | 3.3 | – | 18.8 | 0.5 | – | Antagonist | – | –
COc1ccc(-c2ccccc2)cc1N1CCN(CCn2cnc3sc4c(c3c2=O)CCN(C)C4)CC1 | – | – | – | 116 | – | 429 | 0.1 | – | – | – | –
CN1CCc2c(sc3ncn(CCN4CCN(c5ccccc5C#N)CC4)c(=O)c23)C1 | Partial agonist | 10 | > 80 | 1.4 | – | 2.5 | 1.8 | – | – | – | Agonist
CN1CCc2c(sc3ncn(CCN4CCN(c5cccc6ccccc56)CC4)c(=O)c23)C1 | Partial agonist | 10 | 20 | 0.5 | Partial agonist | 0.7 | 13.2 | – | – | – | –
COc1ccc(OC)c(N2CCN(CCn3cnc4sc5c(c4c3=O)CCN(C)C5)CC2)c1 | – | < 10 | < 20 | 50.2 | – | 24.2 | 8.4 | – | Antagonist | Antagonist | –
COc1ccc(C(F)(F)F)cc1N1CCN(CCn2cnc3sc4c(c3c2=O)CCN(C)C4)CC1 | – | – | – | 42.3 | – | 104 | 18 | – | – | – | –
CN1CCc2c(sc3ncn(CCN4CCN(c5ccccc5OCC(C)(C)C)CC4)c(=O)c23)C1 | Partial agonist | 10 | < 20 | 5.4 | – | 2.5 | 0.2 | – | Antagonist | – | –
CN1CCc2c(sc3ncn(CCN4CCN(c5ccccc5-c5ccccc5)CC4)c(=O)c23)C1 | Partial agonist | 10 | < 20 | 1.1 | – | 4.1 | 1.1 | – | Antagonist | – | –
COc1ccc(Cl)cc1N1CCN(CCn2cnc3sc4c(c3c2=O)CCN(C)C4)CC1 | – | < 10 | < 20 | 70.3 | – | 3 | 0.1 | – | Antagonist | Antagonist | –

Second part, the compound after the results:

Activity ([1]; filed as partial agonist) | Emax [2] [%] | Emax [3] [%] | Ki [4] [nM] | Activity ([5]; filed as partial agonist) | Ki [6] [nM] | Ki [7] [nM] | Activity ([1]; filed as agonist) | Activity ([5]; filed as antagonist) | Activity ([1]; filed as antagonist) | Activity ([5]; filed as agonist) | Compound
– | > 70 | 20 | 3.8 | Partial agonist | 25.8 | 14.8 | Agonist | – | – | – | COc1c(Cl)cc(Cl)cc1N1CCN(CCn2cnc3sc4c(c3c2=O)CCN(C)C4)CC1
– | < 10 | > 80 | 320 | – | 93.4 | 6780 | – | – | Antagonist | Agonist | CN1CCc2c(sc3ncn(CCN4CCN(c5ncnc6ccccc56)CC4)c(=O)c23)C1
Partial agonist | 10 | < 20 | 0.4 | – | 0.4 | 0.5 | – | Antagonist | – | – | CN1CCc2c(sc3ncn(CCN4CCN(c5cccc6ccsc56)CC4)c(=O)c23)C1
Partial agonist | 10 | 20 | 36.6 | Partial agonist | 9.1 | 121.1 | – | – | – | – | CN1CCc2c(sc3ncn(CCN4CCN(c5ccc6ccccc6n5)CC4)c(=O)c23)C1
Partial agonist | 10 | 20 | 1.7 | Partial agonist | 2.8 | 1 | – | – | – | – | CN1CCc2c(sc3ncn(CCN4CCN(c5ccccc5Cl)CC4)c(=O)c23)C1
Partial agonist | 10 | 20 | 0.9 | Partial agonist | 0.9 | 129.1 | – | – | – | – | CN1CCc2c(sc3ncn(CCN4CCN(c5cccc6cnccc56)CC4)c(=O)c23)C1
Partial agonist | 10 | 20 | 0.5 | Partial agonist | 2.5 | 7 | – | – | – | – | COc1c(Cl)cccc1N1CCN(CCn2cnc3sc4c(c3c2=O)CCN(C)C4)CC1
Partial agonist | 10 | 20 | 5.4 | Partial agonist | 11.8 | 4.5 | – | – | – | – | COc1ccc2ccccc2c1N1CCN(CCn2cnc3sc4c(c3c2=O)CCN(C)C4)CC1
Partial agonist | 10 | < 20 | 0.5 | – | 0.6 | 0.2 | – | Antagonist | – | – | CN1CCc2c(sc3ncn(CCN4CCN(c5cccc6c5OCC6)CC4)c(=O)c23)C1
Partial agonist | 10 | 20 | 0.5 | Partial agonist | 0.7 | 41.1 | – | – | – | – | CN1CCc2c(sc3ncn(CCN4CCN(c5nccc6ccccc56)CC4)c(=O)c23)C1
– | < 10 | 20 | 3.5 | Partial agonist | 2.9 | 1.7 | – | – | Antagonist | – | Cc1ccccc1N1CCN(CCn2cnc3sc4c(c3c2=O)CCN(C)C4)CC1
– | < 10 | 20 | 1.4 | Partial agonist | 0.7 | 0.4 | – | – | Antagonist | – | COc1ccccc1N1CCN(CCn2cnc3sc4c(c3c2=O)CCN(C)C4)CC1
Partial agonist | 10 | 20 | 0.1 | Partial agonist | 0.3 | 1.2 | – | – | – | – | CN1CCc2c(sc3ncn(CCN4CCN(c5cccc6ccncc56)CC4)c(=O)c23)C1
Partial agonist | 10 | < 20 | 4.9 | – | 2.5 | 0.2 | – | Antagonist | – | – | COc1cc(Cl)c(Cl)cc1N1CCN(CCn2cnc3sc4c(c3c2=O)CCN(C)C4)CC1

From ChEMBL document CHEMBL1141234, “Synthesis and SAR of highly potent dual 5-HT1A and 5-HT1B antagonists as potential antidepressant drugs” (Bioorg Med Chem Lett, 2005)
